This is an account of results in PubChem BioAssay (NCI).

Some test systems named below: HS 578T breast; MCF7 breast; T-47D breast; DLD-1 colon; HOP-18 NSCLC; M19-MEL melanoma; MDA-N.
Experiment in all cases: NCI tumour cell line growth inhibition, 48 h

Each structure is given as a SMILES string.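 Briefly, cells in 96-well plates were exposed to five compound concentrations for 48 h, and endpoints were estimated by linear interpolation. Abbreviation: GI50, concentration required for 50% inhibition of growth. TGI is the concentration that stops growth completely.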 Bounds are passed on as bounds.

Turning to `CN(C)CCNc1cccc2sc3ccc(O)cc3c(=O)c12`, the GI50 in the experiment with HS 578T breast is 1.75 µM; in the experiment with MCF7 breast, 1.14 µM; with T-47D breast, 2.56 µM. The results for the TGI with HS 578T breast, with MCF7 breast and with T-47D breast were 11.8 µM, 2.96 µM and 12.8 µM, respectively.

Consider `COC(=O)c1ccc(OCc2ccc3oc(=O)c(-c4ccccc4)nc3c2)cc1`, for which the TGI in the experiment with DLD-1 colon was 38.4 µM; with HOP-18 NSCLC, above 100 µM; in the experiment on M19-MEL melanoma, above 100 µM.

Take `O=[N+]([O-])/C=C\c1ccc2c(c1)OCO2`: the figures for the GI50 with HS 578T breast, with MCF7 breast and with T-47D breast were 3.47 µM, 1.99 µM and 5.27 µM, respectively. The TGI is 19.9 µM with HS 578T breast, 10.4 µM in the experiment with MCF7 breast and 26.2 µM in the experiment with T-47D breast.

Consider `O=S(=O)(O)c1ccc2cc(N=Nc3cc(S(=O)(=O)O)c4cccnc4c3O)ccc2c1`, for which the TGI in the experiment with HS 578T breast, with MCF7 breast, in the experiment on MDA-N and in the experiment with T-47D breast was above 100 µM in each case.

On to `O=C(O)C(Cc1ccc(O)c([N+](=O)[O-])c1)N1C(=O)c2ccccc2C1=O` (configuration not stated), for which the TGI with HS 578T breast, with MCF7 breast, in the experiment on MDA-N and in the experiment with T-47D breast was above 100 µM throughout.

Take `O=C(N/N=C/c1ccc(F)cc1)c1[nH]c2ccc(I)cc2c1-c1ccccc1`: the GI50 in the experiment on HS 578T breast is 0.235 µM; in the experiment with MCF7 breast it was 0.339 µM. Besides, the TGI was 0.642 µM in the experiment with HS 578T breast and 18.6 µM in the experiment with MCF7 breast.

`N#C/C(=C(\O)C(=O)O)c1ccc(-c2cccc3ccccc23)cc1`: the TGI in the experiment with HS 578T breast, in the experiment with MCF7 breast, with MDA-N and in the experiment on T-47D breast was above 100 µM each time.

As to `Cc1cc(O)cc(C)c1/C=C/c1cncc(C(=O)N(C)C)c1`, the GI50 in the experiment with HS 578T breast, with MCF7 breast and in the experiment with T-47D breast was above 25 µM throughout. The TGI in the experiment on HS 578T breast, in the experiment with MCF7 breast and in the experiment on T-47D breast was above 25 µM each time.

Consider `O=C1NC(=O)C(c2ccccc2Cl)=C1Nc1cccc(O)c1`, for which the GI50 with HS 578T breast is 1.82 µM; in the experiment with MCF7 breast, 3.99 µM; with T-47D breast, above 10.4 µM. Also, the TGI in the experiment with HS 578T breast was 17.7 µM; with MCF7 breast it was above 20.7 µM; with T-47D breast, above 25 µM.

Turning to `CCCCc1cc(O)ccc1O`, the GI50 in the experiment on HS 578T breast is 18.7 µM; with MCF7 breast, 40.4 µM; in the experiment on T-47D breast, 15.9 µM. Also, the values for the TGI with HS 578T breast, with MCF7 breast and with T-47D breast were above 100 µM, above 100 µM and 67.5 µM, respectively.

`CCN(CC)C(=S)SSC1CCCCC1`: the GI50 was 27.4 µM in the experiment on HS 578T breast, 14.4 µM in the experiment on MCF7 breast and 22.2 µM in the experiment with T-47D breast. Besides, the TGI came to 88.2 µM with HS 578T breast, 30.4 µM with MCF7 breast and 66.4 µM with T-47D breast.

`Cc1ccc(-c2cc3nc(-c4ccccc4)nc(C(Cl)Cl)n3n2)cc1`: the results for the GI50 in the experiment with HS 578T breast, in the experiment on MCF7 breast and in the experiment with T-47D breast were 0.932 µM, 0.845 µM and 0.718 µM, respectively. Also, the TGI in the experiment with HS 578T breast turned out to be 2.31 µM; in the experiment with MCF7 breast, 4.55 µM; in the experiment with T-47D breast, 2.3 µM.

As to `C=C1C(=O)O[C@H]2[C@H]1CC/C(COC(=O)c1ccc(C(=O)O)s1)=C\CC[C@@]1(C)O[C@@H]21`, the GI50 with HS 578T breast is 4.79 µM; in the experiment with T-47D breast it was 2.22 µM. Moreover, the figures for the TGI in the experiment on HS 578T breast and with T-47D breast were 64.5 µM and 5.53 µM, respectively.

As to `O=C1/C(=C\c2cccs2)Oc2ccccc21`, the TGI was above 100 µM with HS 578T breast, above 100 µM in the experiment with MCF7 breast, above 100 µM with MDA-N and 10.8 µM in the experiment on T-47D breast.

For `CCC(=O)N1C/C(=C/c2ccc(OC)cc2)C(=O)/C(=C/c2ccc(OC)cc2)C1`, the GI50 is 2.35 µM in the experiment with HS 578T breast, 0.498 µM with MCF7 breast and 5.1 µM in the experiment on T-47D breast. The TGI in the experiment with HS 578T breast is 7.47 µM; in the experiment with MCF7 breast, 12.2 µM; with T-47D breast it was above 100 µM.

`Cc1ccc2c(c1)sc(-c1ccc(N(C)C)cc1)[n+]2C`: the GI50 in the experiment on HS 578T breast was 6.39 µM; in the experiment on MCF7 breast it was 0.745 µM; in the experiment on T-47D breast, 0.299 µM. The TGI in the experiment with HS 578T breast is above 87.7 µM; with MCF7 breast, 28.3 µM; with T-47D breast, 5.59 µM.

Consider `COC1C(=O)CCC2(CO2)C1(O)C1(C)OC1CCC(C)C` (configuration not stated), for which the TGI in the experiment with HS 578T breast, in the experiment with MCF7 breast, in the experiment on MDA-N and in the experiment with T-47D breast was above 100 µM each time.

On to `CCOC(=O)/C=C/c1ccc(C(=O)OCC)[nH]1`, for which the GI50 was 2.43 µM with HS 578T breast, 3.06 µM in the experiment on MCF7 breast and 6.32 µM in the experiment with T-47D breast. For the same compound, the TGI with HS 578T breast is 22.3 µM; in the experiment on MCF7 breast it was above 100 µM; with T-47D breast it was above 100 µM.

As to `ClCCn1cnc2c(SCc3ccccc3)ncnc21`, the GI50 was 15.4 µM with HS 578T breast, 1.65 µM with MCF7 breast and 11.7 µM in the experiment on T-47D breast. Besides, the TGI in the experiment with HS 578T breast, in the experiment with MCF7 breast and with T-47D breast was above 100 µM throughout.

Take `OCC1OC(N2C=C(c3nc4ccccc4s3)C3C=CC=CC32)C(O)C1O` (configuration not stated): in the experiment with HS 578T breast, the GI50 was 14.2 µM and the TGI was above 50 µM. Besides, in the experiment with MCF7 breast, the GI50 was 5.95 µM and the TGI is above 50 µM.

`CC1(C)C(=O)/C(=C\c2ccco2)C[C@]2(C)[C@H]3CC=C4[C@@H]5C[C@](C)(C(=O)O)CC[C@]5(C)CC[C@@]4(C)[C@]3(C)CC[C@@H]12`: the GI50 is 18.4 µM in the experiment on HS 578T breast, 5.42 µM in the experiment on MCF7 breast and 5.66 µM in the experiment with T-47D breast. Also, the TGI in the experiment with HS 578T breast was above 100 µM; in the experiment on MCF7 breast, 26.2 µM; in the experiment on T-47D breast, 35.1 µM.

As to `N#CC1C(N)=NNC1c1ccc(-c2ccc(-c3nc4ccccc4o3)cc2)o1` (configuration not stated), in the experiment with HS 578T breast, the GI50 is 29.6 µM and the TGI was above 100 µM. Besides, in the experiment on T-47D breast, the GI50 is 68.5 µM and the TGI was above 100 µM.

For the compound `CCN(CC)CC(C)Nc1ccc(C)c2sc3ccccc3c(=O)c12` (configuration not stated), the GI50 in the experiment with HS 578T breast was 2.29 µM; in the experiment with MCF7 breast it was 2.1 µM; in the experiment on T-47D breast it was 3.28 µM. The TGI worked out at 9 µM in the experiment on HS 578T breast, 6.96 µM in the experiment with MCF7 breast and 19.4 µM in the experiment on T-47D breast.
